Laboratory results taken from patent US11179329B2, “Therapeutical use of H3-ligands” (BIOPROJET Pharma, priority 2017, dated 2021).
Like-named read-outs stand apart in the source and are kept apart here.

Key:
[1] = in vivo; cited from earlier work
histamine H3 receptor = histamine H3 receptor (Homo sapiens, UniProt Q9Y5N1); conditions: cited from earlier work
[2] = Solid-state stability / hygroscopicity of the dihydrochloride forms; assay type: physicochemical
Description: The tetrahydrate of compound (A) is stable for relative humidity ranging from at least 30% to 70% which is an improved property as compared to the hygroscopic nature of the previously described dihydrochloride. The tetrahydrate of compound (A) is also stable for temperatures ranging from 20° C. to 40° C.

[3] = Comparative pharmacokinetic data in mice (plasma and brain); conditions: male swiss mice; for AUC brain / AUC plasma: normalized at 1 mg of base/kg, 24 hours sampling
Description: (§1) Compounds were administered to male swiss mice at a dose close to 1 mg of base/kg.

[4] = PK results in human, Compound (A) given orally once-a-day; assay type: in vivo; conditions: for Cmax: serum, po, 90 ug
H3 receptor = experiment: H3R occupancy in brain by PET imaging with [11C]GSK189254 in healthy volunteers; assay type: in vivo; conditions: human
Description: The process of imaging requires the injection of a positron-emitting radiotracer that binds to the receptor followed by the measurement of this binding using the PET scanner.
This method allows to predict the therapeutic dose of a new H3 receptor inverse agonist/antagonist in two steps: 1/the degree of receptor occupancy associated with the dose ensuring therapeutic efficacy of a known drug A is determined, 2/the dose of the new drug B ensuring the same receptor occupancy as A at therapeutic dose is evaluated.
This strategy was applied by comparing H3R occupancy in healthy volunteers receiving pitolisant, an approved and marketed H3R inverse agonist, at its oral maximal therapeutic dose of 40 mg to occupancy by Compound (A) given at several dosages.

[5] = PK results in human, Compound (A) given orally once-a-day; assay type: in vivo; conditions: for Cmax: po, 60 ug
Description: Steady state seems to be attained after 7 to 8 days of treatment for the 60 μg dose.

vigilance = experiment: Activity on vigilance in human; assay type: in vivo
[6] = mouse, in vivo
Description: as §1

Chain of histamine H3 receptor (Q9Y5N1 whole entry, species assumed): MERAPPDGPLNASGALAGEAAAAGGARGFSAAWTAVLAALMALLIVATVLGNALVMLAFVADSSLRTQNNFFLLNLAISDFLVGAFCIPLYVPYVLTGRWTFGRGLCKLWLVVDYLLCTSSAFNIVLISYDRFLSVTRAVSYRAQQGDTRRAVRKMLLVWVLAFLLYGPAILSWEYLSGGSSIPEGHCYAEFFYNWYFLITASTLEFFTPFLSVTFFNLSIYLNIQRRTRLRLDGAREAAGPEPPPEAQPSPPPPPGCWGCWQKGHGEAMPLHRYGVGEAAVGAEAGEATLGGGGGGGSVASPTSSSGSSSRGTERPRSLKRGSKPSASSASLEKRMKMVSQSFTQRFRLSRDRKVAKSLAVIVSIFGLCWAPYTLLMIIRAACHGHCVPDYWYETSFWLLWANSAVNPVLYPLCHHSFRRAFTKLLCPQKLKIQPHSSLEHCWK

[11CH3]NC(=O)c1ccc(Oc2ccc3c(c2)CCN(C2CCC2)CC3)nc1 [[^11C]GSK189254]
brain penetration [1]: good brain penetration
terminal half-life [1]: 1.6 ± 0.4 h
affinity for the histamine H3 receptor (histamine H3 receptor): high affinity

C[C@H]1CCCN(CCCOc2ccc(-c3cc[n+]([O-])cc3)cc2)C1.Cl.Cl.O.O.O.O [Example 4, (3S)-4-{4-[3-(3-methylpiperidin-1-yl)propoxy]phenyl}pyridine 1-oxide dihydrochloride tetrahydrate]
stability (general) [2]: very stable
stability against relative humidity ([2]; relative humidity ranging from at least 30% to 70%): stable
stability against temperature ([2]; temperatures ranging from 20° C. to 40° C.): stable
ratio of plasma AUC over the AUC of the dihydrochloride tetrahydrate [3]: 1.0
AUC brain [3]: 1040 ng·h/g
AUC plasma [3]: 619 ng·h/mL

C[C@H]1CCCN(CCCOc2ccc(-c3cc[n+]([O-])cc3)cc2)C1 [Compound (A), (3S)-4-{4-[3-(3-methylpiperidin-1-yl)propoxy]phenyl}pyridine 1-oxide]
decrease of total body clearance (Clss/F) after repeated dosing ([4]; 90 μg): 74%
higher AUC0-24 h after repeated administration (% accumulation) ([4]; 90 μg): 113%
higher Cmax after repeated administration (% accumulation) ([4]; 90 μg): 101%
Cmax ([4]; oral 90 μg once-a-day, after repeated dose): 0.344 ng/mL
Cmax ([4]; oral 90 μg, after a single dose): 0.171 ng/mL
Percent H3R occupancy ± SD At through (24 h) (H3 receptor; 30 μg once): −46.50 ± 12.71%
potency relative to the marketed drug pitolisant (H3 receptor; doses of equal H3R occupancy): 1,000 fold
dose proportionality of serum exposure (mean Cmax and AUC0-24 h dose normalized ratios) ([5]; human volunteers, between 60 and 90 μg o.d., Day 1 and Day 10): tendency to increase more than dose-proportionally
decrease of total body clearance (Clss/F) after repeated dosing ([5]; human, 60 μg): 65%
higher AUC0-24 h after repeated dosing (Day 10) than after a single dose (Day 1) ([5]; human, 60 μg): 73%
higher Cmax after repeated dosing (Day 10) than after a single dose (Day 1) ([5]; human, 60 μg): 42%
Cmax ([5]; human, serum, human, oral 60 μg once-a-day, after repeated dose): 0.172 ng/mL
Cmax ([5]; human, serum, human, oral 60 μg, after a single dose): 0.121 ng/mL
half-life ([5]; serum, oral, human, determined at Day 10 after multiple administrations, read-out: mean t1/2 (converted)): ~33 h
activity on vigilance (vigilance; 30 μg daily, when going to bed at night): delay in falling asleep
effect of repeated treatment on sleep (vigilance; 90 μg once-a-day for 10 days): some insomnia

C[C@H]1CCCN(CCCOc2ccc(-c3cc[n+]([O-])cc3)cc2)C1.O=P(O)(O)O [Example 12, (3S)-4-{4-[3-(3-methylpiperidin-1-yl)propoxy]phenyl}pyridine 1-oxide phosphate]
ratio of plasma AUC over the AUC of the dihydrochloride tetrahydrate [3]: 0.6
AUC brain [3]: 630 ng·h/g
AUC plasma [3]: 350 ng·h/mL

CCO.C[C@H]1CCCN(CCCOc2ccc(-c3cc[n+]([O-])cc3)cc2)C1.C[C@H]1CCCN(CCCOc2ccc(-c3cc[n+]([O-])cc3)cc2)C1.O.O.O=S(=O)(O)c1cccc2c(S(=O)(=O)O)cccc12.O=S(=O)(O)c1cccc2c(S(=O)(=O)O)cccc12 [Example 11, (3S)-4-{4-[3-(3-methylpiperidin-1-yl)propoxy]phenyl}pyridine 1-oxide 1,5-naphtalenedisulfonate monohydrate hemiethanolate]
ratio of plasma AUC over the AUC of the dihydrochloride tetrahydrate [6]: 0.7

Br.Br.C[C@H]1CCCN(CCCOc2ccc(-c3cc[n+]([O-])cc3)cc2)C1 [Example 16, (3S)-4-{4-[3-(3-methylpiperidin-1-yl)propoxy]phenyl}pyridine 1-oxide dibromhydrate]
ratio of plasma AUC over the AUC of the dihydrochloride tetrahydrate [6]: 0.6

(3S)-4-{4-[3-(3-methylpiperidin-1-yl)propoxy]phenyl}pyridine 1-oxide sesquiglycolate monohydrate [Example 21]
ratio of plasma AUC over the AUC of the dihydrochloride tetrahydrate [3]: 0.6
AUC brain [3]: 484 ng·h/g
AUC plasma [3]: 348 ng·h/mL

C[C@H]1CCCN(CCCOc2ccc(-c3cc[n+]([O-])cc3)cc2)C1.O=S(=O)(O)O [Example 15, (3S)-4-{4-[3-(3-methylpiperidin-1-yl)propoxy]phenyl}pyridine 1-oxide sulfate]
ratio of plasma AUC over the AUC of the dihydrochloride tetrahydrate [3]: 0.8
AUC brain [3]: 639 ng·h/g
AUC plasma [3]: 466 ng·h/mL

C[C@H]1CCCN(CCCOc2ccc(-c3cc[n+]([O-])cc3)cc2)C1.O.O=C(O)c1ccc2ccccc2c1O [Example 19, (3S)-4-{4-[3-(3-methylpiperidin-1-yl)propoxy]phenyl}pyridine 1-oxide 1-hydroxy-2-naphtoate monohydrate]
ratio of plasma AUC over the AUC of the dihydrochloride tetrahydrate [6]: 0.6

Br.C[C@H]1CCCN(CCCOc2ccc(-c3cc[n+]([O-])cc3)cc2)C1 [Example 13, (3S)-4-{4-[3-(3-methylpiperidin-1-yl)propoxy]phenyl}pyridine 1-oxide bromhydrate]
ratio of plasma AUC over the AUC of the dihydrochloride tetrahydrate [6]: 0.6

C[C@H]1CCCN(CCCOc2ccc(-c3cc[n+]([O-])cc3)cc2)C1.O=C(O)C(=O)O [Example 6, (3S)-4-{4-[3-(3-methylpiperidin-1-yl)propoxy]phenyl}pyridine 1-oxide oxalate]
ratio of plasma AUC over the AUC of the dihydrochloride tetrahydrate [3]: 0.9
AUC brain [3]: 923 ng·h/g
AUC plasma [3]: 562 ng·h/mL

(3S)-4-{4-[3-(3-methylpiperidin-1-yl)propoxy]phenyl}pyridine 1-oxide orotate dihydrate [Example 17]
ratio of plasma AUC over the AUC of the dihydrochloride tetrahydrate [3]: 0.6
AUC brain [3]: 529 ng·h/g
AUC plasma [3]: 389 ng·h/mL

C[C@H]1CCCN(CCCOc2ccc(-c3cc[n+]([O-])cc3)cc2)C1.O=C(O)c1cc2ccccc2c(Cc2c(O)c(C(=O)O)cc3ccccc23)c1O [Example 8, (3S)-4-{4-[3-(3-methylpiperidin-1-yl)propoxy]phenyl}pyridine 1-oxide pamoate]
ratio of plasma AUC over the AUC of the dihydrochloride tetrahydrate [3]: 0.9
AUC brain [3]: 952 ng·h/g
AUC plasma [3]: 587 ng·h/mL

C[C@H]1CCCN(CCCOc2ccc(-c3cc[n+]([O-])cc3)cc2)C1 [Example 5, (3S)-4-{4-[3-(3-methylpiperidin-1-yl)propoxy]phenyl}pyridine 1-oxide base]
ratio of plasma AUC over the AUC of the dihydrochloride tetrahydrate [3]: 1.2
AUC brain [3]: 860 ng·h/g
AUC plasma [3]: 769 ng·h/mL

C[C@H]1CCCN(CCCOc2ccc(-c3cc[n+]([O-])cc3)cc2)C1.O=C(O)c1cc2ccccc2cc1O [Example 20, (3S)-4-{4-[3-(3-methylpiperidin-1-yl)propoxy]phenyl}pyridine 1-oxide 3-hydroxy-2-naphtoate]
ratio of plasma AUC over the AUC of the dihydrochloride tetrahydrate [6]: 0.6

(3S)-4-{4-[3-(3-methylpiperidin-1-yl)propoxy]phenyl}pyridine 1-oxide 5-sulfosalicylate [Example 18]
ratio of plasma AUC over the AUC of the dihydrochloride tetrahydrate [3]: 0.6
AUC brain [3]: 513 ng·h/g
AUC plasma [3]: 400 ng·h/mL

C[C@H]1CCCN(CCCOc2ccc(-c3cc[n+]([O-])cc3)cc2)C1.O.O.O.O=C(O)C(O)C(O)C(=O)O [Example 7, (3S)-4-{4-[3-(3-methylpiperidin-1-yl)propoxy]phenyl}pyridine 1-oxide L-tartrate trihydrate]
ratio of plasma AUC over the AUC of the dihydrochloride tetrahydrate [3]: 0.7
AUC brain [3]: 814 ng·h/g
AUC plasma [3]: 447 ng·h/mL

C[C@H]1CCCN(CCCOc2ccc(-c3cc[n+]([O-])cc3)cc2)C1.C[C@H]1CCCN(CCCOc2ccc(-c3cc[n+]([O-])cc3)cc2)C1.Cc1ccc(S(=O)(=O)O)cc1.Cc1ccc(S(=O)(=O)O)cc1.O.O.O.O.O [Example 10, (3S)-4-{4-[3-(3-methylpiperidin-1-yl)propoxy]phenyl}pyridine 1-oxide para-toluenesulfonate sestertihydrate (2.5)]
ratio of plasma AUC over the AUC of the dihydrochloride tetrahydrate [6]: 1.2

C[C@H]1CCCN(CCCOc2ccc(-c3cc[n+]([O-])cc3)cc2)C1.O=C(O)/C=C/C(=O)O [Example 9, (3S)-4-{4-[3-(3-methylpiperidin-1-yl)propoxy]phenyl}pyridine 1-oxide fumarate]
ratio of plasma AUC over the AUC of the dihydrochloride tetrahydrate [3]: 0.7
AUC brain [3]: 882 ng·h/g
AUC plasma [3]: 448 ng·h/mL
